In this test the target is T1, XIAP BIR3 (Homo sapiens, UniProt P98170).
T1 construct: covering amino acids 241 to 356; XIAP BIR3; made in house; host or cells: E. coli
T1 sequence (P98170 241-356): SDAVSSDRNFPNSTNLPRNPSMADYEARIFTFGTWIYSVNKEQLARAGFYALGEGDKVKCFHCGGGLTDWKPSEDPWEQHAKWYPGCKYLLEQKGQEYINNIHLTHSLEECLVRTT
As to the kind of experiment: XIAP BIR3 binding assay (DELFIA), displacement of SMAC peptide. The note with it: GST-fusion BIR3 domain (aa 241 to 356) 10 nM, SMAC peptide 10 nM; activity of the (S)-isomers. How it is done: Biological Methods XIAP BIR3 and cIAP1 BIR3 Binding Assays (DELFIA)
Peptide […]-Lys(Biotin), representing the N-terminus of mature human SMAC (SMAC peptide), was used as interaction partner in the protein-peptide interaction assay.
BIR3 domains (10 nM) were incubated with SMAC peptide (10 nM) in Assay Buffer (50 mM Tris, 120 mM NaCl, 0.1% BSA, 1 mM DTT, 0.05% TritonX100) for one hour at room temperature in the presence of inhibitiory compounds. The assay mixture was transferred to a strepatvidin coated plate and incubated for one hour at room temperature to allow binding of the biotinylated peptide and associated BIR3 domains to the plate. After several washing steps Eu labeled anti-GST antibody (e.g. Perkin Elmer DELFIA Eu-N1-antiGST AD0250) was added to detect BIR3 domain-SMAC peptide interactions according to Perkin Elmer's instructions. […] Time resolved Europium fluoresecence was measured in a Wallac Victor using Standard assay settings.
DELFIA assay results were plotted against compound concentrations and Software GraphPad Prizm was used to calculate half maximal inhibitory concentrations (IC50 values).
As to `CNC(C)C(=O)Nc1ccc(-c2c(C)ccc3ncccc23)c(C#Cc2ccc3ncccc3c2)n1` (stereo not shown) [Example 24, 2-(methylamino)-N-[5-(6-methylquinolin-5-yl)-6-(2-quinolin-6-ylethynyl)pyridin-2-yl]propanamide], the half-inhibitory concentration (IC50) worked out at 698 nM.
`CNC(C)C(=O)Nc1ccc(N(C)C(=O)c2ccccc2)c(C#Cc2ccccc2)n1` (stereo not shown) [Example 247, N-methyl-N-[6-[[2-(methyl-amino)propanoyl]amino]-2-(2-phenylethynyl)pyridin-3-yl]-benzamide] displayed a half-maximal inhibitory concentration (IC50) of 745 nM.
Consider `CNC(C)C(=O)Nc1ccc(-c2cncnc2)c(C#Cc2ccc(OC)c(C#N)c2)n1` (stereo not shown) [Example 12, N-[6-[2-(3-cyano-4-methoxyphenyl)ethynyl]-5-pyrimidin-5-ylpyridin-2-yl]-2-(methylamino)propanamide], for which the concentration for half-maximal inhibition (IC50) stood at 1430 nM.
`CNC(C)C(=O)Nc1ccc(-c2cnc3ccccc3c2)c(C#Cc2ccc3ccccc3c2)n1` (stereo not shown) [Example 98, 2-(methylamino)-N-[6-(2-naphthalen-2-ylethynyl)-5-quinolin-3-yl-pyridin-2-yl]propanamide] returned an IC50 of 526 nM.
Compound `CC(N)C(=O)Nc1cccc(C#Cc2nccs2)n1` (stereo not shown) [Example 237, 2-amino-N-[6-[2-(1,3-thiazol-2-yl)ethynyl]pyridin-2-yl]propanainide] showed an IC50 of 5920 nM.
The figure for `CNC(C)C(=O)Nc1ccc(-c2c[nH]nc2C(=O)OC)c(C#Cc2ccccc2)n1` (stereo not shown) [Example 193, methyl 4-[6-[[2-(methylamino)-propanoyl]amino]-2-(2-phenyl-ethynyl)pyridin-3-yl]-1H-pyrazole-3-carboxylate] is 141 nM.
For `CNC(C)C(=O)Nc1ccc(-c2cnccc2OC)c(C#Cc2ccc3cnccc3c2)n1` (stereo not shown) [Example 153, N-[6-(2-isoquinolin-6-ylethynyl)-5-(4-methoxypyridin-3-yl)-pyridin-2-yl]-2-(methylamino)-propanamide], the IC50 came to 1240 nM.
In turn, `CNC(C)C(=O)Nc1ccc(-c2c(C)nc3ccccn23)c(C#Cc2ccc3nc(OC)ccc3c2)n1` (stereo not shown) [Example 73, N-[6-[2-(2-methoxyquinolin-6-yl)ethynyl]-5-(2-methyl-imidazo[1,2-a]pyridin-3-yl)-pyridin-2-yl]-2-(methylamino)-propanamide] displayed an IC50 of 378 nM.
In the case of `CC(N)C(=O)Nc1ccc(-c2ccccc2)c(C#Cc2ccccc2)n1` (stereo not shown) [Example 107, 2-amino-N-[5-phenyl-6-(2-phenylethynyl)pyridin-2-yl]-propanamide], the half-inhibitory concentration (IC50) was found to be 1010 nM.
Consider `CNC(C)C(=O)Nc1ccc(-c2c(C)cncc2C)c(C#Cc2ccc3ncccc3c2)n1` (stereo not shown) [Example 1, N-[5-(3,5-dimethylpyridin-4-yl)-6-(2-quinolin-6-ylethynyl)pyridin-2-yl]-2-(methylamino)propanamide], for which the IC50 turned out to be 287 nM.
`CC(N)C(=O)Nc1cccc(C#Cc2cc(Cl)cc(Cl)c2)n1` (stereo not shown) [Example 231, 2-amino-N-[6-[2-(3,5-dichlorophenyl)ethynyl]pyridin-2-yl]propanamide] displayed an IC50 of 4860 nM.
Consider `CNC(C)C(=O)Nc1ccc(-c2ccc(C(N)=O)nc2)c(C#Cc2ccccc2)n1` (stereo not shown) [Example 183, 5-[6-[[2-(methylamino)-propanoyl]amino]-2-(2-phenyl-ethynyl)pyridin-3-yl]pyridine-2-carboxamide], for which the IC50 was 146 nM.
The figure for `CC(N)C(=O)Nc1cc2ccccc2c(C#Cc2ccc(Cl)cc2)n1` (stereo not shown) [Example 207, 2-amino-N-[1-[2-(4-chlorophenyl)ethynyl]-isoquinolin-3-yl]propan-amide] is 4240 nM; for `CC(N)C(=O)Nc1ccc(-c2cncnc2)c(C#Cc2ccccc2)n1` (stereo not shown) [Example 105, 2-amino-N-[6-(2-phenylethynyl)-5-pyrimidin-5-ylpyridin-2-yl]-propanamide] it is 220 nM.
Turning to `CNC(C)C(=O)Nc1ccc(-c2cccc(C(F)(F)F)c2OC)c(C#Cc2ccccc2)n1` (stereo not shown) [Example 140, N-[5-[2-methoxy-3-(trifluoromethyl)phenyl]-6-(2-phenylethynyl)pyridin-2-yl]-2-(methylamino)propanamide], the IC50 was 1990 nM.
Regarding `CNC(C)C(=O)Nc1ccc(-c2cncnc2)c(C#Cc2ccc3ccccc3c2)n1` (stereo not shown) [Example 23, 2-(methylamino)-N-[6-(2-naphthalen-2-ylethynyl)-5-pyrimidin-5-ylpyridin-2-yl]-propanamide], the IC50 came to 265 nM.
`CNC(C)C(=O)Nc1ccc(-c2cncnc2)c(C#Cc2ccc3c(c2)OCCCO3)n1` (stereo not shown) [Example 2, N-(6-[2-(3,4-dihydro-2H-1,5-benzodioxepin-7-yl)ethynyl]-5-pyrimidin-5-ylpyridin-2-yl]-2-(methylamino)propanamide] returned an IC50 of 259 nM.
`CNC(C)C(=O)Nc1ccc(-c2cc(C(=O)OC)cc([N+](=O)[O-])c2)c(C#Cc2ccccc2)n1` (stereo not shown) [Example 133, methyl 3-[6-[[2-(methylamino)-propanoyl]amino]-2-(2-phenyl-ethynyl)pyridin-3-yl]-5-nitrobenzoate] returned an IC50 of 142 nM.
`CNC(C)C(=O)Nc1ccc(-c2ccc(C(=O)OC)nc2)c(C#Cc2cc(F)cc(F)c2)n1` (stereo not shown) [Example 151, methyl 5-[2-[2-(3,5-difluorophenyl)ethynyl]-6-[[2-(methylamino)propanoyl]amino]-pyridin-3-yl]pyridine-2-carboxylate] yielded a 50% inhibitory concentration (IC50) of 326 nM.
With `CC(N)C(=O)Nc1ccc(-c2ccc(-c3ccc(F)cc3)nc2)c(C#Cc2ccccc2)n1` (stereo not shown) [Example 112, 2-amino-N-[5-[6-(4-fluorophenyl)pyridin-3-yl]-6-(2-phenylethynyl)pyridin-2-yl]-propanamide], the IC50 worked out at 1070 nM.
`CNC(C)C(=O)Nc1ccc(-c2cncc3ccccc23)c(C#Cc2ccc3c(c2)OCC(=O)N3)n1` (stereo not shown) [Example 5, N-[5-isoquinolin-4-yl-6-[2-(3-oxo-4H-1,4-benzoxazin-7-yl)-ethynyl]pyridin-2-yl]-2-(methylamino)propanamide] came in with an IC50 of 509 nM.
The compound `CC(N)C(=O)Nc1cccc(C#Cc2ccc(F)cc2)n1` (stereo not shown) [Example 219, 2-amino-N-[6-[2-(4-fluorophenyl)ethynyl]pyridin-2-yl]propanamide] came in with an IC50 of 359 nM.
The figure for `CNC(C)C(=O)Nc1ccc(N(C)C(=O)C2CCOCC2)c(C#Cc2ccccc2)n1` (stereo not shown) [Example 244, N-methyl-N-[6-[2-(methylamino)propanoylamino]-2-(2-phenylethynyl)pyridin-3-yl]oxane-4-carboxamide] is 1470 nM; for `CNC(C)C(=O)Nc1cc(Cl)c(-c2cncnc2)c(C#Cc2ccccc2)n1` (stereo not shown) [Example 202, N-[4-chloro-6-(2-phenylethynyl)-5-pyrimidin-5-ylpyridin-2-yl]-2-(methyl-amino)propanamide] it is 483 nM; for `CC(N)C(=O)Nc1ccc(-c2ccccc2C#N)c(C#Cc2ccccc2)n1` (stereo not shown) [Example 109, 2-amino-N-[5-(2-cyanophenyl)-6-(2-phenylethynyl)pyridin-2-yl]-propanamide] it is 650 nM.
Take `CNC(C)C(=O)Nc1ccc(-c2cnc3ccc(C#N)cn23)c(C#Cc2ccc3cnccc3c2)n1` (stereo not shown) [Example 40, N-[5-(6-cyanoimidazo[1,2-a]-pyridin-3-yl)-6-(2-isoquinolin-6-ylethynyl)pyridin-2-yl]-2-(methylamino)propanamide]: the IC50 turned out to be 445 nM.
The compound `CNC(C)C(=O)Nc1ccc(-c2cncnc2C)c(C#Cc2ccc3cncnc3c2)n1` (stereo not shown) [Example 25, 2-(methylamino)-N-[5-(4-methylpyrimidin-5-yl)-6-(2-quinazolin-7-ylethynyl)-pyridin-2-yl]propanamide] had an IC50 of 653 nM.
For the compound `CC(N)C(=O)Nc1cccc(C#Cc2c(Cl)cccc2Cl)n1` (stereo not shown) [Example 236, 2-amino-N-[6-[2-(2,6-dichlorophenyl)ethynyl]pyridin-2-yl]propanamide], the IC50 was 1970 nM.
`CC(N)C(=O)Nc1cccc(C#Cc2cc(F)cc(F)c2)n1` (stereo not shown) [Example 233, 2-amino-N-[6-[2-(3,5-difluorophenyl)ethynyl]pyridin-2-yl]propanamide] registered a half-maximal inhibitory concentration (IC50) of 2910 nM.
`Cc1cc(C#Cc2ccccc2)nc(NC(=O)C(C)N)c1` (stereo not shown) [Example 200, 2-amino-N-[4-methyl-6-(2-phenylethynyl)pyridin-2-yl]propanamide] showed an IC50 of 1790 nM.
Regarding `CC(N)C(=O)Nc1cc2ccccc2c(C#Cc2cncs2)n1` (stereo not shown) [Example 227, 2-amino-N-[1-[2-(1,3-thiazol-5-yl)ethynyl]isoquinolin-3-yl]-propanamide], the IC50 was determined as 1890 nM.
With `CNC(C)C(=O)Nc1cc(C(F)(F)F)c(-c2cncnc2)c(C#Cc2ccccc2)n1` (stereo not shown) [Example 201, 2-(methylamino)-N-[6-(2-phenylethynyl)-5-pyrimidin-5-yl-4-(trifluoromethyl)pyridin-2-yl]propanamide] the figure was 10800 nM; with `CNC(C)C(=O)Nc1ccc(-c2c(C)nc3ccccn23)c(C#Cc2ccc3cc(F)ccc3c2)n1` (stereo not shown) [Example 51, N-[6-[2-(6-fluoronaphthalen-2-yl)ethynyl]-5-(2-methyl-imidazo[1,2-a]pyridin-3-yl)-pyridin-2-yl]-2-(methylamino)-propanamide], 453 nM; with `CCCNC(C)C(=O)Nc1ccc(-c2c(C)noc2C)c(C#Cc2ccccc2)n1` (stereo not shown) [Example 172, N-[5-(3,5-dimethyl-1,2-oxazol-4-yl)-6-(2-phenylethynyl)-pyridin-2-yl]-2-(propylamino)-propanamide], 502 nM.

Source of the values: patent publication US8859541B2, “6-alkynylpyridines” (Boehringer Ingelheim International GmbH, priority 2012, dated 2014).
